Where two headings read alike, the source gives them in different places. Peptide text beside a SMILES is read from it. * marks the point of attachment. Palmitoyl = CCCCCCCCCCCCCCCC(=O)*; X1 = NCCNCC(CNCCN)C(=O)*
Key:
AsPC-1 cells = assay: NTS1R-specific uptake and internalization in AsPC-1 cells; assay type: cell-based, human
Description: The NTS1R-specific internalization of [^99mTc]Tc-DT1/7/8/9 radioligands was compared in AsPC-1 cells. The cells were seeded in 6-well plates (1 × 10^6 cells per well) and left to grow overnight. The following day, the medium was aspirated, and the cells were washed twice with internalization medium (2 mL IM: RPMI supplemented with 1% v/v FBS) on ice. They were placed on the bench, and warm IM (1200 μL 37 °C) was added per well, followed by radioligand solution (150 μL, 250 fmol) and either IM (150 μL total: T; upper wells) or NT (10^−5 M in IM, non-specific: NS; lower wells). The plates were placed in the Incubator-Orbital Shaker at 37 °C for 1 h, and the incubation was interrupted by placing the plates on ice. The supernatant was collected in RIA tubes, and the cells were washed with 1 mL phosphate-buffered saline (PBS, pH 7.4, 4 °C) containing 0.5% w/v BSA, and the washing was also collected in the same RIA tube. Cells were treated twice for 5 min with glycine buffer (600 μL, 50 mM glycine, 0.1 M NaCl, pH 2.8), and supernatants were collected (membrane bound fraction, MB). The cells were washed again with 1 mL ice-cold PBS-BSA buffer, which was discarded. Finally, cells were lysed (2 × 600 μL 1 M NaOH), and the lysates were collected (internalized fraction, IF). Sample radioactivity was measured on the γ-counter. Specific values for MB and IF were acquired by subtracting NS values from T ones. Results are expressed as mean percentage of added radioactivity ± sd, n = 3. In addition, time-dependent internalization in AsPC-1 cells was directly compared for [^99mTc]Tc-DT1/9 by incubation at 37 °C for 15 min, 30 min, 1 h, and 2 h, following the above-described protocol for each time point.

[1] = Biodistribution in SCID mice bearing AsPC-1 xenografts; assay type: in vivo; details: male, mouse, iv, total radioactivity; for tissue uptake at 4 h: 4 h pi; for tissue uptake at 24 h: 24 h pi
Description: Twenty male severe combined immunodeficiency (SCID) mice (23.1 ± 1.6 g body weight, six weeks of age on arrival day; NCSR “Demokritos” Animal House, Athens, Greece) were used in the biodistribution experiments. Animals were subcutaneously inoculated in their right flanks with a sterile suspension of freshly harvested AsPC-1 cells (150 μL, 5 × 10^6 cells/animal), and 3–4 weeks later, they developed well-palpable tumors at the implantation sites. During this period, mice were housed in suitable facilities under sterile conditions with 12 h day/night cycles and were provided with sterilized chow food and drinking water ad libitum. At the date of the experiment, animals were randomly divided in groups of four and received through the tail vein a bolus of [^99mTc]Tc-DT9 (100 μL, 3 pmol in vehicle: PBS/EtOH 9/1 v/v with the addition of 0.1% Tween-80) plus vehicle (100 μL; controls at 4 and 24 h pi) or plus Lis (100 μg in 100 μL vehicle); the latter groups had additionally received per os 30 min in advance Entresto® (200 μL, 12 mg; Entresto®+Lis groups at 4 and 24 h pi). A further 4 h group of animals was treated with Entresto®, and 30 min later, mice were co-injected with excess NT and Lis (100 μg NT and 100 μg Lis in 100 μL vehicle—NTS1R block). At the predetermined time intervals, mice were euthanized and weighted, and their blood, organs, and tissue samples of choice as well as the implanted tumors were collected and weighted. Sample radioactivity was measured on the γ-counter together with proper standards of the injected dose. Results were calculated as percentage of injected activity per gram tissue (%IA/g) and provided as mean %IA/g values ± sd. For comparisons, a two-way ANOVA with Tukey’s post hoc analysis was adopted (PRISM^TM 6.0 GraphPad Software, San Diego, CA, USA). p-values < 0.05 were considered statistically significant.

[2] = AsPC-1 tumor, 3 pmol, Controls, read-out: uptake in AsPC-1 Tumor
[3] = AsPC-1 tumor, Entresto+Lis, read-out: uptake in AsPC-1 Tumor
[4] = blood, 3 pmol, Controls, read-out: uptake in Blood
[5] = blood, Entresto+Lis, read-out: uptake in Blood
[6] = heart, 3 pmol, Controls, read-out: uptake in Heart
[7] = heart, Entresto+Lis, read-out: uptake in Heart
[8] = intestines, 3 pmol, Controls, read-out: uptake in Intestines
[9] = intestines, Entresto+Lis, read-out: uptake in Intestines
[10] = kidneys, 3 pmol, Controls, read-out: uptake in Kidneys
[11] = kidneys, Entresto+Lis, read-out: uptake in Kidneys
[12] = liver, 3 pmol, Controls, read-out: uptake in Liver
[13] = liver, Entresto+Lis, read-out: uptake in Liver
[14] = lungs, 3 pmol, Controls, read-out: uptake in Lungs
[15] = lungs, Entresto+Lis, read-out: uptake in Lungs
[16] = muscle, 3 pmol, Controls, read-out: uptake in Muscle
[17] = muscle, Entresto+Lis, read-out: uptake in Muscle
[18] = pancreas, 3 pmol, Controls, read-out: uptake in Pancreas
[19] = pancreas, Entresto+Lis, read-out: uptake in Pancreas
[20] = spleen, 3 pmol, Controls, read-out: uptake in Spleen
[21] = spleen, Entresto+Lis, read-out: uptake in Spleen
[22] = stomach, 3 pmol, Controls, read-out: uptake in Stomach
[23] = stomach, Entresto+Lis, read-out: uptake in Stomach

With CCCCCCCCCCCCCCCC(=O)NCCCC[C@H](NC(=O)C(CNCCN)CNCCN)C(=O)N[C@@H](CCCNC(=N)N)C(=O)N[C@@H](CCCNC(=N)N)C(=O)N1CCC[C@H]1C(=O)N[C@@H](Cc1ccc(O)cc1)C(=O)N[C@H](C(=O)N[C@@H](CC(C)C)C(=O)O)[C@@H](C)CC [[^99mTc]Tc-DT9, metal not drawn] (X1-K(Palmitoyl)RRPYIL-OH) the “internalization, specific of added radioactivity” value (AsPC-1 cells; 1 h at 37 °C) was 16.53 ± 1.12%, the “specific cell uptake of added radioactivity (internalized + membrane bound)” value (AsPC-1 cells; 1 h at 37 °C) was 16.76 ± 1.16% and the “specific uptake of added radioactivity (time-dependent internalization)” value (AsPC-1 cells; 2 h at 37 °C) was 21.5 ± 1.0%. It also gave a tissue uptake at 4 h [1, 2] of 6.15 ± 0.92 %ID/g, a tissue uptake at 24 h [1, 2] of 3.32 ± 0.35 %ID/g and a tissue uptake at 4 h ([1]; AsPC-1 tumor, Block (Entresto+Lis plus excess NT), read-out: uptake in AsPC-1 Tumor) of 3.68 ± 0.92 %ID/g. For the same compound, the tissue uptake at 4 h [1, 3] was 5.24 ± 0.27 %ID/g, the tissue uptake at 24 h [1, 3] was 2.84 ± 0.43 %ID/g and the tissue uptake at 4 h [1, 4] was 4.63 ± 0.55 %ID/g. It also gave a tissue uptake at 4 h ([1]; blood, 3 pmol, all animal groups, read-out: radioactivity levels in the blood) greater than 4 %ID/g, a tissue uptake at 24 h [1, 4] of 0.68 ± 0.18 %ID/g and a tissue uptake at 4 h ([1]; blood, Block (Entresto+Lis plus excess NT), read-out: uptake in Blood) of 4.25 ± 0.37 %ID/g. The tissue uptake at 4 h [1, 5] was 4.32 ± 0.42 %ID/g, the tissue uptake at 24 h [1, 5] was 0.7 ± 0.06 %ID/g and the tissue uptake at 4 h [1, 6] was 3.12 ± 0.43 %ID/g. The tissue uptake at 24 h [1, 6] was 0.64 ± 0.11 %ID/g, the tissue uptake at 4 h ([1]; heart, Block (Entresto+Lis plus excess NT), read-out: uptake in Heart) was 2.79 ± 0.47 %ID/g and the tissue uptake at 4 h [1, 7] was 2.85 ± 2.48 %ID/g. It also gave a tissue uptake at 24 h [1, 7] of 0.71 ± 0.06 %ID/g, a tissue uptake at 4 h [1, 8] of 13 ± 4.6 %ID/g and a tissue uptake at 24 h [1, 8] of 4.26 ± 0.61 %ID/g. For the same compound, the tissue uptake at 4 h ([1]; intestines, Block (Entresto+Lis plus excess NT), read-out: uptake in Intestines) was 6.27 ± 0.72 %ID/g, the tissue uptake at 4 h [1, 9] was 7.9 ± 0.88 %ID/g and the tissue uptake at 24 h [1, 9] was 5.37 ± 1.61 %ID/g. The tissue uptake at 4 h [1, 10] was 9.53 ± 1.18 %ID/g, the tissue uptake at 24 h [1, 10] was 3.81 ± 0.54 %ID/g and the tissue uptake at 4 h ([1]; kidneys, Block (Entresto+Lis plus excess NT), read-out: uptake in Kidneys) was 8.56 ± 0.87 %ID/g. It also gave a tissue uptake at 4 h [1, 11] of 9.15 ± 0.62 %ID/g, a tissue uptake at 24 h [1, 11] of 4.63 ± 0.15 %ID/g and a tissue uptake at 4 h [1, 12] of 29.6 ± 3.77 %ID/g. It also gave a tissue uptake at 24 h [1, 12] of 12.9 ± 1.66 %ID/g, a tissue uptake at 4 h ([1]; liver, Block (Entresto+Lis plus excess NT), read-out: uptake in Liver) of 30.9 ± 4.25 %ID/g and a tissue uptake at 4 h [1, 13] of 28.4 ± 2.48 %ID/g. The tissue uptake at 24 h [1, 13] was 17 ± 0.94 %ID/g, the tissue uptake at 4 h [1, 14] was 8.8 ± 1.42 %ID/g and the tissue uptake at 24 h [1, 14] was 3.42 ± 0.67 %ID/g. For the same compound, the tissue uptake at 4 h ([1]; lungs, Block (Entresto+Lis plus excess NT), read-out: uptake in Lungs) was 8.46 ± 1.26 %ID/g, the tissue uptake at 4 h [1, 15] was 7.61 ± 0.64 %ID/g and the tissue uptake at 24 h [1, 15] was 3.62 ± 0.94 %ID/g. The tissue uptake at 4 h [1, 16] was 0.93 ± 0.13 %ID/g, the tissue uptake at 24 h [1, 16] was 0.22 ± 0.02 %ID/g and the tissue uptake at 4 h ([1]; muscle, Block (Entresto+Lis plus excess NT), read-out: uptake in Muscle) was 0.82 ± 0.11 %ID/g. It also gave a tissue uptake at 4 h [1, 17] of 0.81 ± 0.04 %ID/g, a tissue uptake at 24 h [1, 17] of 0.24 ± 0.01 %ID/g and a tissue uptake at 4 h [1, 18] of 2.1 ± 0.3 %ID/g. It also gave a tissue uptake at 24 h [1, 18] of 0.75 ± 0.17 %ID/g, a tissue uptake at 4 h ([1]; pancreas, Block (Entresto+Lis plus excess NT), read-out: uptake in Pancreas) of 1.84 ± 0.41 %ID/g and a tissue uptake at 4 h [1, 19] of 1.85 ± 0.18 %ID/g. It also gave a tissue uptake at 24 h [1, 19] of 0.8 ± 0.07 %ID/g, a tissue uptake at 4 h [1, 20] of 6.82 ± 1.11 %ID/g and a tissue uptake at 24 h [1, 20] of 3.42 ± 0.54 %ID/g. It also gave a tissue uptake at 4 h ([1]; spleen, Block (Entresto+Lis plus excess NT), read-out: uptake in Spleen) of 6.18 ± 1.37 %ID/g, a tissue uptake at 4 h [1, 21] of 5.47 ± 0.47 %ID/g and a tissue uptake at 24 h [1, 21] of 4.47 ± 0.83 %ID/g. For the same compound, the tissue uptake at 4 h [1, 22] was 3.09 ± 1.06 %ID/g, the tissue uptake at 24 h [1, 22] was 1.73 ± 0.5 %ID/g and the tissue uptake at 4 h ([1]; stomach, Block (Entresto+Lis plus excess NT), read-out: uptake in Stomach) was 2.06 ± 0.47 %ID/g. For the same compound, the tissue uptake at 4 h [1, 23] was 2.27 ± 0.38 %ID/g and the tissue uptake at 24 h [1, 23] was 1.56 ± 0.31 %ID/g.
